“Also recorded” adds a separate entry of the source.

Data set [1] deals with LPS/hyperthermia-induced ALI in CD1 mice. In words: Mouse i.t. LPS/FRH-induced acute lung injury model. The following applies: single i.p. injection of 100-1000 μg UM101, 1000 μg UM60 or 1000 μg SB203580, 30 min before i.t. 50 μg LPS and hyperthermia.
For another data set, the target named is T1, p38β (Homo sapiens, UniProt Q15759).
T1 construct: HA (N); made in house; host or cells: E. coli BL21
In words: DSF, binding to p38β. The following applies: DSF melting temperature, concentration series.

For data set [2], the system named is LPS-induced cytokine expression in PMA-differentiated THP1 cells. The data set is described as follows: LPS-induced cytokine expression, PCR-based cytokine array. The class given is cell-based, human. The following applies: 25 μM SB203580 or 10, 25, or 100 μM UM101.
The test system of data set [3] is p38-dependent phosphorylation of MK2 and Stat-1 in HeLa cells. In words: Inhibition of substrate phosphorylation (immunoblot). The class given is cell-based, human. The following applies: 10 μM SB203580 or 50 μM UM101 for 30 min. An excerpt: Cell extracts prepared in RIPA buffer containing protease and phosphatase inhibitors were resolved by SDS-PAGE, transferred to PVDF membrane, blocked with 5% nonfat dry milk, probed with primary antibodies against phosphorylated MK2 and Stat-1, and total p38α as a loading control. Bands were detected using secondary antibodies conjugated to infrared fluorophores and infrared fluorescence imaging (Odyssey; LICOR).
For orientation: In western blotting, separated proteins are transferred to a membrane and probed.

T1 sequence (Q15759 whole entry): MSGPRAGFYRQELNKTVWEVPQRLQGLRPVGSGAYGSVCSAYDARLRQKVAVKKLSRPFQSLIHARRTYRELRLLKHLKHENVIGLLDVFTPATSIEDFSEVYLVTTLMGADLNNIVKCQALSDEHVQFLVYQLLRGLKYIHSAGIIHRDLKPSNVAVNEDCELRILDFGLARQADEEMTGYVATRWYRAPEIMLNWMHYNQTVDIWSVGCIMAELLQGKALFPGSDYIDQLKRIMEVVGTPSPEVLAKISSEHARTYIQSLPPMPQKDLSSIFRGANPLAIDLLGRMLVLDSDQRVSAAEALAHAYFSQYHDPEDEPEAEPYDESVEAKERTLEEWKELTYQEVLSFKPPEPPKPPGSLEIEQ

In the case of `C[S+]([O-])c1ccc(-c2nc(-c3ccncc3)c(-c3ccc(F)cc3)[nH]2)cc1` (centres unmarked) [SB203580, reference compound], in data set [1], the “mice that died within 24 h” value was “one of six”. Moreover, the “stabilization of p38β in DSF (binding), in words” value at p38β is “stabilized both p38α and p38β”. The “LPS-stimulated genes of the array (16) whose expression was inhibited, in words” value in data set [2] is reported as “inhibited expression of seven”. For the same compound, in data set [3], the “anisomycin-stimulated phosphorylation of MK2, in words” value is recorded as “failed to completely block MK2 phosphorylation; also recorded: reduced” and the “anisomycin-stimulated phosphorylation of Stat-1, in words” value is given as “reduced”.

Values taken from US11911393B2, “Non-catalytic substrate-selective p38alpha-specific MAPK inhibitors with endothelial-stabilizing and anti-inflammatory activity, and methods of use thereof” (University of Maryland, Baltimore, priority 2016, dated 2024).
